Values after ≈ are worked out from the molar mass of the structure shown.
How the values were obtained:
Streptococcus pneumoniae [1] = test: Minimum inhibitory concentration against Streptococcus pneumoniae (GC 1894) was determined; type: functional
Streptococcus agalactiae = test: Minimum inhibitory concentration against Streptococcus agalactiae (GC4564) was determined; type: functional
[2] = Minimum inhibitory concentration against SCN (GC 4547) was determined; type: functional
Streptococcus pneumoniae [3] = test: Minimum inhibitory concentration against Streptococcus pneumoniae (GC 6242) was determined; type: functional
Staphylococcus aureus [4] = test: Minimum inhibitory concentration against Staphylococcus aureus (GC 2216) was determined; type: functional
Enterococcus faecium [5] = test: Minimum inhibitory concentration against Enterococcus faecium (GC 4557) was determined; type: functional
Staphylococcus aureus [6] = test: Minimum inhibitory concentration against Staphylococcus aureus (GC 4542) was determined; type: functional
Streptococcus pyogenes = test: Minimum inhibitory concentration against Streptococcus pyogenes (GC 4563) was determined; type: functional
Escherichia coli [7] = test: Minimum inhibitory concentration against Escherichia coli (GC 2203) was determined; type: functional
Micrococcus luteus = test: Minimum inhibitory concentration against Sarcina lutea (GC 4562) was determined; type: functional
Staphylococcus aureus [8] = test: Minimum inhibitory concentration against Staphylococcus aureus (GC 3051) was determined; type: functional
Staphylococcus aureus [9] = test: Minimum inhibitory concentration against Staphylococcus aureus (GC 4541 was determined; type: functional
Streptococcus pneumoniae [10] = test: Minimum inhibitory concentration against Streptococcus pneumoniae (GC 4565) was determined; type: functional
Enterococcus faecalis [11] = test: Minimum inhibitory concentration against Enterococcus faecalis (GC 6189) was determined; type: functional
[12] = Minimum inhibitory concentration against SCN (GC 4549) was determined; type: functional
[13] = Minimum inhibitory concentration against SCN (GC 4548) was determined; type: functional
[14] = Minimum inhibitory concentration against SCN (GC 4551) was determined; type: functional
Enterococcus faecalis [15] = test: Minimum inhibitory concentration against Enterococcus faecalis (GC 2691) was determined; type: functional
Enterococcus faecalis [16] = test: Minimum inhibitory concentration against Enterococcus faecalis (GC 4555) was determined; type: functional
Enterococcus faecalis [17] = test: Minimum inhibitory concentration against Enterococcus faecalis (GC 2242) was determined; type: functional
Staphylococcus aureus [18] = test: Minimum inhibitory concentration against Staphylococcus aureus (GC 4544) was determined; type: functional
Enterococcus faecalis [19] = test: Minimum inhibitory concentration against Enterococcus faecalis (GC 4554) was determined; type: functional
Escherichia coli [20] = test: Minimum inhibitory concentration against Escherichia coli (GC 4560) was determined; type: functional
[21] = Minimum inhibitory concentration against SCN (GC 6257) was determined; type: functional
Staphylococcus aureus [22] = test: Minimum inhibitory concentration against Staphylococcus aureus (GC 3066) was determined; type: functional
Enterococcus faecium [23] = test: Minimum inhibitory concentration against Enterococcus faecium (GC 4556) was determined; type: functional
Enterococcus avium = test: Minimum inhibitory concentration against Enterococcus avium (GC 4558) was determined; type: functional
Escherichia coli [24] = test: Minimum inhibitory concentration against Escherichia coli (GC 4564) was determined; type: functional
Staphylococcus aureus [25] = test: Minimum inhibitory concentration against Staphylococcus aureus (GC 1131) was determined; type: functional
Enterococcus faecalis [26] = test: Minimum inhibitory concentration against Enterococcus faecalis (GC 4553) was determined; type: functional
Morganella morganii = test: Minimum inhibitory concentration against Morganella morganii (GC 4381) was determined; type: functional
Staphylococcus aureus [27] = test: Minimum inhibitory concentration against Staphylococcus aureus (GC 4545) was determined; type: functional
Bacillus cereus = test: Minimum inhibitory concentration against Bacillus cereus (GC 4561) was determined; type: functional
Pseudomonas aeruginosa = test: Minimum inhibitory concentration against Pseudomonas aeruginosa (GC 2214) control was determined; type: functional
Enterococcus faecalis [28] = test: Minimum inhibitory concentration against Enterococcus faecalis (GC 3059) was determined; type: functional
Staphylococcus aureus [29] = test: Minimum inhibitory concentration against Staphylococcus aureus (GC 4543) was determined; type: functional
Enterococcus faecium [30] = test: Minimum inhibitory concentration against Enterococcus faecium (GC 2243) was determined; type: functional
Candida albicans = test: Minimum inhibitory concentration against Candida albicans GC 3066 was determined; type: functional
Enterococcus faecalis [31] = test: Minimum inhibitory concentration against Enterococcus faecalis (GC 4552) was determined; type: functional
[32] = tested on: Staphylococcus haemolyticus; test: Minimum inhibitory concentration against Staphylococcus haemolyticus (GC 4546) was determined
Mus musculus = test: In vivo activity against Staphylococcus aureus smith was determined after iv administration in mice; type: functional; conditions: Mus musculus, iv; read-out: ED50
Staphylococcus aureus [33] = test: Minimum inhibitory concentration against Staphylococcus aureus smith; type: functional

`COc1ccc2cc(CO[C@H]3[C@H](O)[C@@H](CO)OC(O[C@H]4[C@H](O)[C@H](O)[C@@H](Oc5ccc(C[C@H]6NC(=O)[C@H]([C@@H](C)c7ccccc7)NC(=O)CNC(=O)[C@H](CO)NC(=O)[C@@H]([C@@H](O)[C@@H]7CN=C(N)N7[C@H]7O[C@H](O)[C@@H](O)[C@H](O)[C@@H]7O)NC(=O)[C@H]([C@@H](O)[C@@H]7CN=C(N)N7)NC6=O)cc5)O[C@@H]4CO)[C@H]3O)ccc2c1` (some centres not stated) gave an MIC (Streptococcus pneumoniae [1]) of 0.12 µg/mL (≈ 0.0827 µM), an MIC (Streptococcus agalactiae) of 0.5 µg/mL (≈ 0.344 µM) and an MIC [2] of 2 µg/mL (≈ 1.38 µM). It also gave an MIC (Streptococcus pneumoniae [3]) of 0.25 µg/mL (≈ 0.172 µM), an MIC (Staphylococcus aureus [4]) of 2 µg/mL (≈ 1.38 µM) and an MIC (Enterococcus faecium [5]) of 0.25 µg/mL (≈ 0.172 µM). The MIC (Staphylococcus aureus [6]) was 1 µg/mL (≈ 0.689 µM), the MIC (Streptococcus pyogenes) was 0.5 µg/mL (≈ 0.344 µM) and the MIC (Escherichia coli [7]) was 128 µg/mL (≈ 88.2 µM). For the same compound, the MIC (Micrococcus luteus) was 0.25 µg/mL (≈ 0.172 µM), the MIC (Staphylococcus aureus [8]) was 2 µg/mL (≈ 1.38 µM) and the MIC (Staphylococcus aureus [9]) was 2 µg/mL (≈ 1.38 µM). For the same compound, the MIC (Streptococcus pneumoniae [10]) was 0.25 µg/mL (≈ 0.172 µM), the MIC (Enterococcus faecalis [11]) was 4 µg/mL (≈ 2.76 µM) and the MIC [12] was 1 µg/mL (≈ 0.689 µM). The MIC [13] was 1 µg/mL (≈ 0.689 µM), the MIC [14] was 2 µg/mL (≈ 1.38 µM) and the MIC (Enterococcus faecalis [15]) was 8 µg/mL (≈ 5.51 µM). The MIC (Enterococcus faecalis [16]) was 8 µg/mL (≈ 5.51 µM), the MIC (Enterococcus faecalis [17]) was 8 µg/mL (≈ 5.51 µM) and the MIC (Staphylococcus aureus [18]) was 4 µg/mL (≈ 2.76 µM). It also gave an MIC (Enterococcus faecalis [19]) of 8 µg/mL (≈ 5.51 µM), an MIC (Escherichia coli [20]) of 1 µg/mL (≈ 0.689 µM) and an MIC [21] of 1 µg/mL (≈ 0.689 µM). The MIC (Staphylococcus aureus [22]) was 2 µg/mL (≈ 1.38 µM), the MIC (Enterococcus faecium [23]) was 8 µg/mL (≈ 5.51 µM) and the MIC (Enterococcus avium) was 2 µg/mL (≈ 1.38 µM). It also gave an MIC (Escherichia coli [24]) of 128 µg/mL (≈ 88.2 µM), an MIC (Staphylococcus aureus [25]) of 4 µg/mL (≈ 2.76 µM) and an MIC (Enterococcus faecalis [26]) of 8 µg/mL (≈ 5.51 µM). For the same compound, the MIC (Morganella morganii) was > 128 µg/mL, the MIC (Staphylococcus aureus [27]) was 2 µg/mL (≈ 1.38 µM) and the MIC (Bacillus cereus) was 2 µg/mL (≈ 1.38 µM). For the same compound, the MIC (Pseudomonas aeruginosa) was > 128 µg/mL, the MIC (Enterococcus faecalis [28]) was 8 µg/mL (≈ 5.51 µM) and the MIC (Staphylococcus aureus [29]) was 2 µg/mL (≈ 1.38 µM). The MIC (Enterococcus faecium [30]) was 8 µg/mL (≈ 5.51 µM), the MIC (Candida albicans) was > 64 µg/mL and the MIC (Enterococcus faecalis [31]) was 8 µg/mL (≈ 5.51 µM). For the same compound, the MIC [32] was 1 µg/mL (≈ 0.689 µM).
With `COc1ccc2cc(CO[C@H]3[C@H](O)[C@H](O)[C@@H](O[C@H]4[C@H](O)[C@H](O)[C@@H](Oc5ccc(C[C@H]6NC(=O)[C@H]([C@@H](C)c7ccccc7)NC(=O)CNC(=O)[C@H](CO)NC(=O)[C@@H]([C@@H](O)[C@@H]7CN=C(N)N7[C@H]7O[C@H](O)[C@@H](O)[C@H](O)[C@@H]7O)NC(=O)[C@H]([C@@H](O)[C@@H]7CN=C(N)N7)NC6=O)cc5)O[C@@H]4CO)O[C@@H]3CO)ccc2c1` the MIC (Streptococcus pneumoniae [1]) was ≤ 0.06 µg/mL, the MIC (Streptococcus agalactiae) was ≤ 0.06 µg/mL and the MIC [2] was 0.5 µg/mL (≈ 0.344 µM). The MIC (Streptococcus pneumoniae [3]) was ≤ 0.06 µg/mL, the MIC (Staphylococcus aureus [4]) was 1 µg/mL (≈ 0.689 µM) and the MIC (Enterococcus faecium [5]) was 1 µg/mL (≈ 0.689 µM). For the same compound, the MIC (Staphylococcus aureus [6]) was 0.25 µg/mL (≈ 0.172 µM), the MIC (Streptococcus pyogenes) was ≤ 0.06 µg/mL and the MIC (Escherichia coli [7]) was 32 µg/mL (≈ 22 µM). The MIC (Micrococcus luteus) was ≤ 0.06 µg/mL, the MIC (Staphylococcus aureus [8]) was 1 µg/mL (≈ 0.689 µM) and the MIC (Staphylococcus aureus [9]) was 0.5 µg/mL (≈ 0.344 µM). The ED50 (Mus musculus) was 0.06 mg/kg, the MIC (Streptococcus pneumoniae [10]) was ≤ 0.06 µg/mL and the MIC (Enterococcus faecalis [11]) was 1 µg/mL (≈ 0.689 µM). The MIC [12] was 0.12 µg/mL (≈ 0.0827 µM), the MIC [13] was 0.12 µg/mL (≈ 0.0827 µM) and the MIC [14] was 0.25 µg/mL (≈ 0.172 µM). For the same compound, the MIC (Enterococcus faecalis [15]) was 2 µg/mL (≈ 1.38 µM), the MIC (Enterococcus faecalis [16]) was 2 µg/mL (≈ 1.38 µM) and the MIC (Enterococcus faecalis [17]) was 2 µg/mL (≈ 1.38 µM). It also gave an MIC (Staphylococcus aureus [18]) of 1 µg/mL (≈ 0.689 µM), an MIC (Enterococcus faecalis [19]) of 2 µg/mL (≈ 1.38 µM) and an MIC (Escherichia coli [20]) of 0.25 µg/mL (≈ 0.172 µM). It also gave an MIC [21] of 0.25 µg/mL (≈ 0.172 µM), an MIC (Staphylococcus aureus [22]) of 1 µg/mL (≈ 0.689 µM) and an MIC (Staphylococcus aureus [33]) of 0.5 µg/mL (≈ 0.344 µM). It also gave an MIC (Enterococcus faecium [23]) of 2 µg/mL (≈ 1.38 µM), an MIC (Enterococcus avium) of 2 µg/mL (≈ 1.38 µM) and an MIC (Escherichia coli [24]) of 32 µg/mL (≈ 22 µM). It also gave an MIC (Staphylococcus aureus [25]) of 0.5 µg/mL (≈ 0.344 µM), an MIC (Enterococcus faecalis [26]) of 2 µg/mL (≈ 1.38 µM) and an MIC (Morganella morganii) of 64 µg/mL (≈ 44.1 µM). The MIC (Staphylococcus aureus [27]) was 0.5 µg/mL (≈ 0.344 µM), the MIC (Bacillus cereus) was 1 µg/mL (≈ 0.689 µM) and the MIC (Pseudomonas aeruginosa) was > 64 µg/mL. The MIC (Enterococcus faecalis [28]) was 2 µg/mL (≈ 1.38 µM), the MIC (Staphylococcus aureus [29]) was 0.5 µg/mL (≈ 0.344 µM) and the MIC (Enterococcus faecium [30]) was 2 µg/mL (≈ 1.38 µM). The MIC (Candida albicans) was > 64 µg/mL, the MIC (Enterococcus faecalis [31]) was 2 µg/mL (≈ 1.38 µM) and the MIC [32] was 0.25 µg/mL (≈ 0.172 µM).

— ChEMBL document CHEMBL1136657, “Novel ether derivatives of mannopeptimycin glycopeptide antibiotic” (2003)
